Laboratory results taken from patent publication US5247084A, “Derivatives of p-guanidinobenzoic acid” (priority 1985, dated 1993).
Where two headings read alike, the source gives them in different places.

Target: T1, elastase from human neutrophil (Homo sapiens, UniProt P08246)
T1 construct: using elastase from human neutrophil; from tissue; host or cells: human neutrophil
T1 sequence (P08246 30-247 limits assumed): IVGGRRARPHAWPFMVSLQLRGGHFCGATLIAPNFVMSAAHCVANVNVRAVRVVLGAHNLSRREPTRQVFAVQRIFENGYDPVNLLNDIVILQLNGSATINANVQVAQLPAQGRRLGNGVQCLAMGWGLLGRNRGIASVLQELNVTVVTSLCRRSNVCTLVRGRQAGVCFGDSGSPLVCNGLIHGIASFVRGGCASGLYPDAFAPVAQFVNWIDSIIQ
Test: Inhibitory effect on elastase (spectrophotometric method, substrate Suc-Ala-Pro-Ala-pNA)
Type: biochemical
Settings: for inhibition at 50 µg/mL: at 50 μg/ml, read-out: Elastase Inhibitory Effect, Inhibition %

[1] = Y represents an oxygen atom, pH 8.0, 37° C., 30 minutes, read-out: Inhibitory Effect on Elastase, IC50
[2] = Y represents a sulfur atom, pH 8.0, 37° C., 30 minutes, read-out: Elastase Inhibitory Effect, IC50

Description: The test was carried out by the slight modification of the method of Bieth et al [see Biochem. Med., 75, 350 (1974)] using elastase from human neutrophil.
The reaction mixture consisted of 1 mM Suc-Ala-Pro-Ala-pNA (dissolving in N-methylpyrrolidone to the concentration of 100 mM, and then adding 1/100 amount of the solution to the reaction mixture.), 0.1 M buffer solution of tris-hydrochloric acid (pH 8.0), 0.2 M sodium chloride aqueous solution, the sample solution of various concentrations and enzyme solution in a final volume of 1.0 ml was incubated at 37° C. for 30 minutes.
The reaction was stopped by the addition of 100 μl of 50% acetic acid into the reaction mixture, and then p-nitro anilide released was measured on absorbance of 405 nm.
Inhibition percentage of the test compounds was caliculated by the following equation: [formula]

Structure (SMILES) | IC50 [1] [µM] | inhibition at 50 µg/mL (Y represents a sulfur atom) [%] | also measured
CNC(=O)c1cc(OC(=O)c2ccc(NC(=N)N)cc2)cc(OC(=O)c2ccc(NC(=N)N)cc2)c1 [Example 82] |  |  | inhibition at 100 µM (Y represents an oxygen atom): 38%
CCNC(=O)c1cc(OC(=O)c2ccc(NC(=N)N)cc2)cc(C(=O)NCC)c1 [Example 83] |  |  | inhibition at 100 µM (Y represents an oxygen atom): 28%
CCCNC(=O)c1cc(OC(=O)c2ccc(NC(=N)N)cc2)cc(C(=O)NCCC)c1 [Example 84] |  |  | inhibition at 100 µM (Y represents an oxygen atom): 36%
N=C(N)Nc1ccc(C(=O)Oc2cc(OC(=O)c3ccc(NC(=N)N)cc3)cc(C(=O)NCc3ccccc3)c2)cc1 [Example 85] |  |  | inhibition at 100 µM (Y represents an oxygen atom): 27%
N=C(N)Nc1ccc(C(=O)Oc2cc(Cl)cc(C(=O)Nc3cccnc3)c2)cc1 [Example 86] | 0.93 |  | 
CN(C)C(=O)Oc1cc(Cl)cc(OC(=O)c2ccc(NC(=N)N)cc2)c1 [Example 87] |  |  | IC50: 0.76 µM
CCNC(=O)Oc1cc(Cl)cc(OC(=O)c2ccc(NC(=N)N)cc2)c1 [Example 88] |  |  | IC50: 1.1 µM
N=C(N)Nc1ccc(C(=O)Oc2cccc(S(N)(=O)=O)c2)cc1 [Example 89] | 65 |  | 
CN(C)S(=O)(=O)c1ccc(OC(=O)c2ccc(NC(=N)N)cc2)cc1Cl [Example 90] | 140 |  | 
CCN(CC)S(=O)(=O)c1ccccc1OC(=O)c1ccc(NC(=N)N)cc1 [Example 91] | 180 |  | 
CCN(CC)S(=O)(=O)c1cccc(OC(=O)c2ccc(NC(=N)N)cc2)c1 [Example 92] | 35 |  | 
CCN(CC)S(=O)(=O)c1ccc(OC(=O)c2ccc(NC(=N)N)cc2)cc1 [Example 93] | 58 |  | 
CCN(CC)S(=O)(=O)c1cc(Cl)cc(OC(=O)c2ccc(NC(=N)N)cc2)c1 [Example 95] | 4.8 |  | 
CCN(CC)S(=O)(=O)c1ccc(OC(=O)c2ccc(NC(=N)N)cc2)c(F)c1 [Example 96] | 61 |  | 
CCCN(CCC)S(=O)(=O)c1ccc(OC(=O)c2ccc(NC(=N)N)cc2)cc1 [Example 97] | 58 |  | 
N=C(N)Nc1ccc(C(=O)Oc2ccc(S(=O)(=O)N3CCCC3)cc2)cc1 [Example 98] | 77 |  | 
N=C(N)Nc1ccc(C(=O)Oc2cccc(S(=O)(=O)N3CCCCC3)c2)cc1 [Example 99] |  |  | inhibition at 100 µM (Y represents an oxygen atom): 41%
N=C(N)Nc1ccc(C(=O)Oc2cccc(S(=O)(=O)N3CCOCC3)c2)cc1 [Example 100] |  |  | inhibition at 100 µM (Y represents an oxygen atom): 44.2%
N=C(N)Nc1ccc(C(=O)Oc2ccc(S(=O)(=O)N3CCOCC3)cc2)cc1 [Example 101] |  |  | inhibition at 100 µM (Y represents an oxygen atom): 34.9%
N=C(N)Nc1ccc(C(=O)Oc2cc(Cl)cc(C(=O)Nc3ccc(S(N)(=O)=O)cc3)c2)cc1 [Example 102] | 1.3 |  | 

Structure (SMILES) | IC50 [1] [µM] | inhibition at 50 µg/mL (Y represents a sulfur atom) [%] | also measured
CN(C)S(=O)(=O)c1ccc(NC(=O)c2cc(Cl)cc(OC(=O)c3ccc(NC(=N)N)cc3)c2)cc1 [Example 103] | 0.95 |  | 
CCN(CC)S(=O)(=O)c1ccc(NC(=O)c2cc(Cl)cc(OC(=O)c3ccc(NC(=N)N)cc3)c2)cc1 [Example 104] | 1.1 |  | 
CS(=O)(=O)Nc1ccc(Cl)c(OC(=O)c2ccc(NC(=N)N)cc2)c1 [Example 105] | 8.5 |  | 
CCS(=O)(=O)Nc1cc(Cl)cc(OC(=O)c2ccc(NC(=N)N)cc2)c1 [Example 106] | 15 |  | 
N=C(N)Nc1ccc(C(=O)Oc2cccc([N+](=O)[O-])c2)cc1 [Example 107] | 11 |  | inhibition at 100 µM (Y represents an oxygen atom): 87%
N=C(N)Nc1ccc(C(=O)Oc2ccc([N+](=O)[O-])cc2)cc1 [Example 108] | 120 |  | inhibition at 100 µM (Y represents an oxygen atom): 60.1%
Cc1cc(O)cc(OC(=O)c2ccc(NC(=N)N)cc2)c1 [Example 109] | 160 |  | 
COc1cc(O)cc(OC(=O)c2ccc(NC(=N)N)cc2)c1 [Example 110] | 20 |  | 
COC(=O)c1cc(O)cc(OC(=O)c2ccc(NC(=N)N)cc2)c1 [Example 111] |  |  | inhibition at 100 µM (Y represents an oxygen atom): 45%
N=C(N)Nc1ccc(C(=O)Oc2cc(O)cc(OC(=O)c3ccc(NC(=N)N)cc3)c2)cc1 [Example 113] |  |  | inhibition at 100 µM (Y represents an oxygen atom): 42%
CNC(=O)c1cc(O)cc(OC(=O)c2ccc(NC(=N)N)cc2)c1 [Example 114] |  |  | inhibition at 100 µM (Y represents an oxygen atom): 22%
N=C(N)Nc1ccc(C(=O)Oc2cc(O)cc(C(=O)NCc3ccccc3)c2)cc1 [Example 115] | 88 |  | 
N=C(N)Nc1ccc(C(=O)Oc2cccc(NC(=N)N)c2)cc1 [Example 116] |  |  | inhibition at 100 µM (Y represents an oxygen atom): 20%
N=C(N)Nc1ccc(OC(=O)c2ccc(NC(=N)N)cc2)cc1 [Example 117] | > 100 |  | 
N=C(N)Nc1ccc(C(=O)Oc2cc(NC(=N)N)ccc2Cl)cc1 [Example 118] | 47 |  | 
N=C(N)Nc1ccc(C(=O)Oc2cc(Cl)cc(OCc3ccccc3)c2)cc1 [Example 119] | 4.7 |  | 
N=C(N)Nc1ccc(SCc2cc(Cl)cc(OC(=O)c3ccc(NC(=N)N)cc3)c2)cc1 [Example 120] | 6 |  | 
N=C(N)Nc1ccc(C(=O)Oc2cc(Cl)cc(COc3cccnc3)c2)cc1 [Example 121] | 1.1 |  | 
COc1cc(OC(=O)c2ccc(NC(=N)N)cc2)cc(C(=O)N2CCS(=O)(=O)C2)c1 [Example 122] | 12 |  | 
N=C(N)Nc1ccc(C(=O)Oc2cc(Cl)cc(C(=O)N3CCS(=O)(=O)C3)c2)cc1 [Example 123] | 3.1 |  | 

Structure (SMILES) | IC50 [1] [µM] | inhibition at 50 µg/mL (Y represents a sulfur atom) [%] | also measured
Cc1ccccc1SC(=O)c1ccc(NC(=N)N)cc1 [Example 125] |  | 76.3 | IC50 [2]: 20 µM
Cc1cccc(SC(=O)c2ccc(NC(=N)N)cc2)c1 [Example 126] |  | 89.7 | IC50 [2]: 5 µM
Cc1ccc(SC(=O)c2ccc(NC(=N)N)cc2)cc1 [Example 127] |  | 29.3 | 
COc1ccccc1SC(=O)c1ccc(NC(=N)N)cc1 [Example 128] |  | 79.8 | IC50 [2]: 21 µM
COc1cccc(SC(=O)c2ccc(NC(=N)N)cc2)c1 [Example 129] |  | 89.2 | IC50 [2]: 6.4 µM
COc1ccc(SC(=O)c2ccc(NC(=N)N)cc2)cc1 [Example 130] |  | 48.2 | 
N=C(N)Nc1ccc(C(=O)Sc2ccc(F)cc2)cc1 [Example 131] |  | 83 | IC50 [2]: 21 µM
N=C(N)Nc1ccc(C(=O)Sc2ccccc2Cl)cc1 [Example 132] |  | 93 | IC50 [2]: 1.8 µM
N=C(N)Nc1ccc(C(=O)Sc2cccc(Cl)c2)cc1 [Example 133] |  | 81.2 | IC50 [2]: 0.3 µM
N=C(N)Nc1ccc(C(=O)Sc2ccc(Cl)cc2)cc1 [Example 134] |  | 69.5 | 
N=C(N)Nc1ccc(C(=O)Sc2c(Cl)cccc2Cl)cc1 [Example 136] |  | 64.5 | IC50 [2]: 45 µM
N=C(N)Nc1ccc(C(=O)Sc2ccc(Cl)c(Cl)c2)cc1 [Example 137] |  | 35.5 | 
N=C(N)Nc1ccc(C(=O)Sc2ccccc2Br)cc1 [Example 138] |  | 83.1 | IC50 [2]: 1.6 µM
N=C(N)Nc1ccc(C(=O)Sc2ccc(C(=O)O)cc2)cc1 [Example 139] |  | 23.2 | 
N=C(N)Nc1ccc(C(=O)Sc2ccc(CC(=O)O)cc2)cc1 [Example 140] |  | 47.8 | 
COC(=O)c1ccccc1SC(=O)c1ccc(NC(=N)N)cc1 [Example 141] |  | 96.3 | IC50 [2]: 2.6 µM
CCOC(=O)c1ccc(SC(=O)c2ccc(NC(=N)N)cc2)cc1 [Example 142] |  | 69.1 | 
CCOC(=O)Cc1ccc(SC(=O)c2ccc(NC(=N)N)cc2)cc1 [Example 144] |  | 75.5 | 
N=C(N)Nc1ccc(C(=O)Sc2ccc([N+](=O)[O-])cc2)cc1 [Example 145] |  | 64.2 | IC50 [2]: 18 µM
